System: MDA-MB-231 triple negative breast cancer cells with G13D k-Ras mutation
Assay: EGF induced MAPK activation in MDA-MB-231 cells
Assay type: cell-based
Conditions: not given

Compound	inhibition of EGF induced MAPK activation
O=C1Cc2cc(NC(=O)Nc3ccc(F)cc3)ccc2N1 [GRB001]	inhibits RTK induced Ras signaling

System: RTK induced Ras signaling
Assay: EGF and FGF induced MAPK activation in multiple cancer cell-lines
Assay type: cell-based
Conditions: not given
From the text: GRB001 inhibits RAS/ERK activation while EGFR is fully active (FIG. 6D, top panel and the corresponding active EGFR in bottom panel)

Compound	inhibition of EGF and FGF induced MAPK activation
O=C1Cc2cc(NC(=O)Nc3ccc(F)cc3)ccc2N1 [GRB001]	inhibits EGF and FGF induced MAPK activation

Molecular target: T1, GRB2 (Homo sapiens, UniProt P62993)
T1 sequence (P62993 whole entry): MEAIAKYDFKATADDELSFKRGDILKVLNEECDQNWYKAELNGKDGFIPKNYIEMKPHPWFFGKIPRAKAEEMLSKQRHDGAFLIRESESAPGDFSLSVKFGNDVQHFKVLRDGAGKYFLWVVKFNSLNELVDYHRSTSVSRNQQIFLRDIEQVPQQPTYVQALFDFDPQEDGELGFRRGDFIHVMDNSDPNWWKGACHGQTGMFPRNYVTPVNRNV
Assay: fluorescence anisotropy assay measuring GRB2 dimerization
Assay type: biochemical
Conditions: 100 nM Atto488 labeled GRB2; NB = No Binding (inability to induce GRB2 dimerization); read-out: EC50 anisotropy, compound induced GRB2 dimerization
Protocol: FIGS. 16A & 16B show fluorescence anisotropy assay data measuring GRB2 dimerization. 100 nM Atto488 labeled GRB2, which is below its dimer forming concentration, was used to identify compounds that induce dimerization. […] Note that NB represent compounds inability to induce GRB2 dimerization.
GRB2 dimerization was measured by fluorescence anisotropy assay. 100 nM Atto488 labeled GRB2, which is below its dimer forming concentration, was used to identify compounds that induce dimerization. […] Note that NB represent compounds inability to induce GRB2 dimerization.

Compound	EC50 [µM]
O=c1[nH]c2ccc(NC(=S)NCCN3CCOCC3)cc2[nH]1 [GRB050]	56
O=C1Cc2cc(NC(=O)Nc3ccc(F)cc3)ccc2N1 [GRB001]	49.7
O=C1Cc2cc(NC(=O)Nc3cccc(Cl)c3)ccc2N1 [GRB004]	26
Cc1cc(NC(=O)Nc2ccc3c(c2)CC(=O)N3)ccc1Cl [GRB090]	13
O=C(Nc1cccc(C(F)(F)F)c1)Nc1ccc2[nH]c(=O)[nH]c2c1 [GRB046]	2
O=c1[nH]c2ccc(NC(=S)Nc3ccc(Cl)c(Cl)c3)cc2[nH]1 [GRB048]	8.3
Cc1ccc(NC(=O)Nc2ccc3[nH]c(=O)[nH]c3c2)c(C)c1 [GRB029]	16.3
Cc1cccc(NC(=O)Nc2ccc3[nH]c(=O)[nH]c3c2)c1C [GRB030]	37.3
O=C(Cc1ccc(F)cc1)Nc1ccc2[nH]c(S)nc2c1 [GRB074]	205
O=C(Nc1ccc(F)cc1)Nc1ccc2[nH]c(=O)[nH]c2c1 [GRB047]	9.7
O=C1Cc2cc(NC(=O)Nc3cc(F)cc(F)c3)ccc2N1 [GRB085]	1.1
Cc1cc(Br)ccc1NC(=O)Nc1ccc2[nH]c(=O)[nH]c2c1 [GRB020]	0.75
COc1cccc(NC(=O)Nc2ccc3[nH]c(=O)oc3c2)c1 [GRB105]	9.7
O=C(Nc1cc(Cl)cc(Cl)c1)Nc1ccc2[nH]c(=O)oc2c1 [GRB101]	13
COC(=O)c1cccc(NC(=O)Nc2ccc3c(c2)CC(=O)N3)c1 [GRB094]	23
O=C1Cc2cc(NC(=O)Nc3cc(Cl)cc(Cl)c3)ccc2N1 [GRB092]	13.8
COc1ccccc1NC(=O)Nc1ccc2c(c1)CC(=O)N2 [GRB012]	4.5
O=C(Nc1ccc(F)c(Cl)c1)Nc1ccc2[nH]c(=O)[nH]c2c1 [GRB031]	40.3
N#Cc1ccc(NC(=O)Nc2ccc3[nH]c(S)nc3c2)cc1 [GRB063]	124
O=C1Cc2cc(NC(=S)Nc3cccc(Cl)c3)ccc2N1 [GRB095]	50.9
CCN1C(=O)Cc2cc(NC(=O)Nc3ccc(Cl)c(Cl)c3)ccc21 [GRB009]	5.5

Compound	EC50 [µM]
Cc1ccc(S(=O)(=O)Nc2ccc3[nH]c(S)nc3c2)cc1 [GRB078]	436
Cc1ccc(NC(=O)Nc2ccc3c(c2)CC(=O)N3)c(C)c1 [GRB093]	15.5
COc1cccc(NC(=O)Nc2ccc3[nH]c(=O)[nH]c3c2)c1 [GRB034]	264
Cc1ccc(NC(=O)Nc2ccc3[nH]c(=O)[nH]c3c2)cc1 [GRB021]	1
O=C(NCc1ccc(F)cc1)Nc1ccc2[nH]c(SCc3ccc(F)cc3)nc2c1 [GRB066]	246
Cc1ccccc1NC(=O)Nc1ccc2[nH]c(S)nc2c1 [GRB058]	2
O=C(Nc1ccc2ccccc2c1)Nc1ccc2[nH]c(SCc3ccc(F)cc3)nc2c1 [GRB070]	128
N#Cc1cccc(NC(=O)Nc2ccc3[nH]c(=O)[nH]c3c2)c1 [GRB025]	6
CCN1C(=O)Cc2cc(NC(=O)Nc3ccc(Cl)cc3)ccc21 [GRB010]	3.9
CSc1nc2cc(C(=O)Nc3cccc(F)c3)ccc2[nH]1 [GRB077]	502
O=C1Cc2cc(NC(=O)Nc3ccc(F)c(Cl)c3)ccc2N1 [GRB088]	8.3
O=C(Nc1ccccc1)Nc1ccc2[nH]c(S)nc2c1 [GRB064]	116
COc1cccc(NC(=O)Nc2ccc3c(c2)CC(=O)N3C)c1 [GRB007]	15.7
O=C(Nc1cc(F)cc(F)c1)Nc1ccc2[nH]c(SCc3ccc(F)cc3)nc2c1 [GRB071]	225
O=C(Nc1cc(F)cc(F)c1)Nc1ccc2[nH]c(=O)oc2c1 [GRB102]	> 100
O=C(Nc1ccccc1)Nc1ccc2[nH]c(SCc3ccc(F)cc3)nc2c1 [GRB065]	350
O=C1Cc2cc(NC(=O)NC(=O)c3ccccc3)ccc2N1 [GRB091]	13.3
O=C(Nc1ccc(Cl)c(Cl)c1)Nc1ccc2[nH]c(=O)[nH]c2c1 [GRB022]	2.1
O=C(Nc1cc(F)cc(F)c1)Nc1ccc2[nH]c(S)nc2c1 [GRB060]	2.4
O=C(Nc1cccc(F)c1)Nc1ccc2[nH]c(SCc3ccc(F)cc3)nc2c1 [GRB075]	23
O=C(NCc1ccccc1)Nc1ccc2[nH]c(=O)[nH]c2c1 [GRB049]	11.5

Compound	EC50 [µM]
O=C(Nc1cccc(F)c1)Nc1ccc2[nH]c(=O)[nH]c2c1 [GRB023]	3.1
COc1ccccc1NC(=O)Nc1ccc2[nH]c(=O)[nH]c2c1 [GRB051]	> 100
COc1cc(NC(=O)Nc2ccc3[nH]c(=O)[nH]c3c2)cc(OC)c1OC [GRB032]	> 100
CCOC(=O)CNC(=O)Nc1ccc2[nH]c(=O)[nH]c2c1 [GRB027]	10.1
Cc1cc(C)cc(NC(=O)Nc2ccc3[nH]c(S)nc3c2)c1 [GRB062]	78
CN1C(=O)Cc2cc(NC(=O)Nc3ccc(F)cc3)ccc21 [GRB006]	2.7
CC(=O)c1cccc(NC(=O)Nc2ccc3[nH]c(SCc4ccc(F)cc4)nc3c2)c1 [GRB073]	15
COc1cccc(NC(=O)Nc2ccc3[nH]c(S)nc3c2)c1 [GRB061]	129
O=C1Cc2cc(NC(=S)Nc3ccc(Cl)c(Cl)c3)ccc2N1 [GRB086]	1.5
O=C1Cc2cc(NC(=O)Nc3cccc(Br)c3)ccc2N1 [GRB087]	4.6
O=C(Nc1cc(F)cc(F)c1)Nc1ccc2[nH]c(=O)[nH]c2c1 [GRB024]	4.6
Cc1ccc(NC(=O)Nc2ccc3[nH]c(=O)oc3c2)cc1 [GRB104]	3.1
Cc1cccc(NC(=O)Nc2ccc3c(c2)CC(=O)N3)c1C [GRB089]	9.1
COC(=O)c1cccc(NC(=O)Nc2ccc3[nH]c(=O)[nH]c3c2)c1 [GRB033]	> 100
COC(=O)c1cccc(NC(=O)c2ccc3[nH]c(S)nc3c2)c1 [GRB076]	62
Cc1cc(C)cc(NC(=O)Nc2ccc3[nH]c(SCc4ccc(F)cc4)nc3c2)c1 [GRB067]	48
O=C1Cc2cc(NC(=O)Nc3cccs3)ccc2N1 [GRB003]	9.7
O=C(Nc1cc(Cl)cc(Cl)c1)Nc1ccc2[nH]c(=O)[nH]c2c1 [GRB028]	10.2
Cc1ccc(NC(=O)Nc2ccc3[nH]c(=O)[nH]c3c2)c(C)c1 [GRB026]	8.2

Molecular target: T1, GRB2
Assay: GRB001 binding to GRB2 by MST
Conditions: read-out: Kd, in vitro binding to GRB2 by MST
Protocol: In vitro binding of GRB001 to GRB2 with 50 μM Kd.

Compound	Kd [µM]
O=C1Cc2cc(NC(=O)Nc3ccc(F)cc3)ccc2N1 [GRB001]	50

System: not listed separately
Assay: Sulforhodamine B (SRB) cytotoxicity in HEK293T cells
Assay type: cell-based
Conditions: human
Protocol: (§1) Titrating concentrations of each compounds were used to treat cells for 72 hours. The data was normalized against 100% survival at the lowest inhibitor concentration. Graphs for IC50 were fitted to the four-parameter logistic equation using Prism8. Error bars show the percent coefficient of variation. Equivalent concentrations of DMSO were used as a negative control.
(§2) SRB cytotoxicity analysis was also performed using GRB152 in HEK293T and MDA-MB-231 cells. Cells were exposed to various concentrations of compound for 72 h before viability measurements.

Compound	IC50 at 72 h [µM]
O=c1[nH]c2ccc(NC(=S)Nc3ccc(Cl)c(Cl)c3)cc2o1 [GRB152]	1.5 ± 0.5
COc1ccc(Cl)cc1NC(=O)Nc1ccc2[nH]c(=O)oc2c1 [GRB161]	> 120

System: MDA-MB-231 TNBC
Assay: apoptosis in MDA-MB-231 tumor cells
Assay type: cell-based
Conditions: not given
From the text: GRB001 specifically kills triple negative breast cancer cells through caspase 3/7 mediated apoptosis (FIG. 8B).

Compound	induction of apoptosis
O=C1Cc2cc(NC(=O)Nc3ccc(F)cc3)ccc2N1 [GRB001]	induces apoptosis

Molecular target: GRB2 dimer interface (Homo sapiens, UniProt P62993)
Sequence (P62993 whole entry): as above
Assay: GRB2 monomer dimer equilibrium measurement
Assay type: biochemical
Conditions: presence of 100 μM GRB001
Protocol: Measurements of GRB2 monomer dimer equilibrium in the absence (lower, darker line) or presence of 100 μM GRB001 (upper, lighter line).

Compound	effect on GRB2 monomer dimer equilibrium
O=C1Cc2cc(NC(=O)Nc3ccc(F)cc3)ccc2N1 [GRB001]	induce a Kd shift favoring dimerization

System: A549 (lung adenocarcinoma) cells with G12S KRAS mutation
Assay: EGF induced MAPK activation in A549 cells
Assay type: cell-based
Conditions: not given

Compound	inhibition of EGF induced MAPK activation
O=C1Cc2cc(NC(=O)Nc3ccc(F)cc3)ccc2N1 [GRB001]	inhibits RTK induced Ras signaling

System: A549 lung cancer cells
Assay: apoptosis in A549 tumor cells
Assay type: cell-based
Conditions: not given

Compound	induction of apoptosis
O=C1Cc2cc(NC(=O)Nc3ccc(F)cc3)ccc2N1 [GRB001]	induces apoptosis

System: not listed separately
Assay: Sulforhodamine B (SRB) cytotoxicity in MDA-MB-231 cells
Assay type: cell-based
Conditions: human
Protocol: as §1, §2

Compound	IC50 at 72 h [µM]
O=c1[nH]c2ccc(NC(=S)Nc3ccc(Cl)c(Cl)c3)cc2o1 [GRB152]	12.1 ± 1.5

Molecular target: T1, GRB2
Assay: ITC binding to GRB2
Conditions: read-out: Kd, ITC binding isotherm
From the text: Validation of in vitro binding of GRB001 to GRB2 with ITC as an alternative technique. […] GRB001 is able to bind GRB2 in two different conformations as reflected by the energy signature (inset).
FIGS. 14A-14C show ITC binding isotherm of GRB001 binding to GRB2 as in FIG. 4 (FIG. 14A).

Compound	Kd [µM]
O=C1Cc2cc(NC(=O)Nc3cc(Cl)cc(Cl)c3)ccc2N1 [GRB092]	0.527 ± 0.367

Same assay, conditions: read-out: Kd, binding to GRB2 by ITC

Compound	Kd [µM]
O=C1Cc2cc(NC(=O)Nc3ccc(F)cc3)ccc2N1 [GRB001]	37

System: OVCAR8 cells
Assay: EGF induced ERK activation in OVCAR8 cells
Assay type: cell-based
Conditions: not given

Compound	inhibition of EGF induced ERK activation
O=C1Cc2cc(NC(=O)Nc3ccc(F)cc3)ccc2N1 [GRB001]	inhibition of EGF induced ERK activation

System: OVCAR5 cells
Assay: nuclear fragmentation of OVCAR5 cells, high-throughput assay
Assay type: cell-based
Conditions: 500 nM compound
From the text: The intensity of the red color represents nuclear condensation indicative of apoptotic cells.

Compound	nuclear fragmentation of OVCAR5 cells
O=C1Cc2cc(NC(=O)Nc3ccc(Cl)c(Cl)c3)ccc2N1 [GRB002]	inducing nuclear fragmentation

Same assay, conditions: OVCAR5 cells

Compound	quantitation of fragmented nucleus among Series-1 GRB001 analogues
O=C1Cc2cc(NC(=O)Nc3ccc(Cl)c(Cl)c3)ccc2N1 [GRB002]	highest level of fragmented nucleus
O=C1Cc2cc(NC(=O)Nc3ccc4c(c3)OCO4)ccc2N1 [GRB005]	highest level of fragmented nucleus

System: OVCAR5
Assay: EGF induced ERK activation in OVCAR5 cells
Assay type: cell-based
Conditions: not given

Compound	inhibition of EGF induced ERK activation
O=C1Cc2cc(NC(=O)Nc3ccc(F)cc3)ccc2N1 [GRB001]	inhibition of EGF induced ERK activation
